According to PMC8472378, “Desferrioxamine B-Mediated Pre-Clinical In Vivo Imaging of Infection by the Mold Fungus Aspergillus fumigatus” (Journal of Fungi, 2021):

Assays:
[1] = tested on: A. fumigatus; settings: cited from earlier work
[2] = tested on: A. fumigatus mutant strain (∆sidA/∆ftrA); assay: Siderophore utilization via growth promotion on solid minimal medium; assay type: cell-based, Aspergillus fumigatus; settings: 0.1 µM iron-loaded siderophore, 48 h at 37 °C
Protocol: Growth assays were performed on solid Aspergillus minimal medium (AMM), as described above, solidified with 1.8% (w/v) agar. The pH was adjusted with NaOH, and the medium was supplemented with the respective siderophore. The agar plates were point-inoculated with 10^4 spores per dot of ∆sidA∆ftrA [10] and incubated at 37 °C for 48 h.

[3] = tested on: pulmonary A. fumigatus infection; assay: Ex vivo biodistribution in A. fumigatus-infected rats; set-up: species or system rat; settings: 45 min p.i.; for radioactivity accumulation in non-infected organs (blood, spleen, pancreas, liver, heart and muscle) / route of excretion / uptake in the infected lungs as compared with radiolabeled DFO-B in the same rat: infected rats; for uptake in the infected lungs as compared with radiolabeled DFO-B in the same rat: co-injection
Protocol: (§1) A previously described rat model of pulmonary aspergillosis was used for the in vivo experiments. The introduction of A. fumigatus spores into animals, injection of radiolabeled siderophores and small animal imaging were carried out under 2% isoflurane anesthesia (FORANE, Abbott Laboratories, Abbott Park, IL, USA) to minimize animal suffering and prevent animal motion. Infection in the lung of immunodeficient rats was established by intratracheal inoculation of 100 μL of A. fumigatus spores (10^9 CFU/mL A. fumigatus ATCC 46645; American Type Culture Collection) using the TELE PACK VET X LED system equipped with a flexible endoscope (https://www.karlstorz.com/cps/rde/xbcr/karlstorz_assets/ASSETS/3386919.pdf, accessed on 20 August 2021; Karl Storz GmbH & Co. KG, Tuttlingen, Germany). Depending on the development of the infection, experimental animals underwent an ex vivo biodistribution study or PET/CT imaging, typically 2–4 days after inoculation.
A. fumigatus-infected rats were retro-orbitally (r.o.) injected with [^67Ga]- and [^68Ga]Ga-DFO-B and DFO-E. One infected rat (rat 1) was injected with [^68Ga]Ga-DFO-B and [^67Ga]Ga-DFO-E, while the second rat (rat 2) was […] with [^67Ga]Ga-DFO-B and [^68Ga]Ga-DFO-E (~0.5 MBq and ~0.5 µg of each DFO-B and DFO-E per rat). Rats were sacrificed by exsanguination 45 min post-injection (p.i.). Organs and tissues of interest (blood, spleen, pancreas, kidneys, liver, heart, muscle and lung) were removed and weighed. The amount of radioactivity in the samples was measured in a γ-counter (2480 Wizard-2; Perkin Elmer, Waltham, MA, USA). First, a short-lived ^68Ga was measured immediately after organ removal in the 511 ± 100 keV energy window, and ^67Ga was measured after 24 h in the 185 ± 100 keV energy window. The results are expressed as percentage of injected dose per gram of organ (%ID/g).

[4] = tested on: Escherichia coli; set-up: method as in PMID 22172389, PMID 32734456; settings: cited from earlier work
[5] = non-infected rats; cited from earlier work
[6] = tested on: A. fumigatus strain Afs77; assay: Short-term siderophore uptake analysis; assay type: cell-based, Aspergillus fumigatus; settings: for uptake efficacy compared to [68Ga]Ga-DFO-E: 45 min at 37 °C
Protocol: Short-term uptake of siderophore-complexed ^68Ga was analyzed as described previously. A. fumigatus strain Afs77 [25] was grown for 18 h at 37 °C in 100 mL Aspergillus minimal medium (AMM) according to Pontecorvo et. al. with 1% (w/v) glucose as the carbon source and 20 mM glutamine as the nitrogen source, using iron-free trace elements to induce iron limiting for the transcriptional activation of siderophore uptake. To generate iron-replete mycelia for the transcriptional downregulation of siderophore uptake, the growth medium contained an additional 0.03 mM FeSO4. For the analysis of the pH-dependent siderophore uptake, the pH of the fungal culture medium was adjusted with HCl (1 M) and NaOH (1 M) immediately before the uptake analyses. Uptake assays were performed with 180 µL of liquid A. fumigatus culture added to a prewetted 96-well MultiScreen Filter Plates HTS (1 μm glass fiber filter, Merck Millipore, Darmstadt, Germany). Then, 50 µL of radioactive labelled siderophores (~100 nM) were added to the culture and incubated for 45 min at 37 °C. After washing two times with ice-cold TRIS buffer, the dried filters were measured in a γ-counter.

[7] = set-up: method as in PMID 32734456; settings: cited from earlier work
[8] = tested on: Pseudomonas aeruginosa; settings: cited from earlier work
[9] = set-up: method as in PMID 32734456; settings: cited from earlier work; remark: listed apart in the source
[10] = tested on: Klebsiella pneumoniae; settings: cited from earlier work
[11] = tested on: pulmonary A. fumigatus infection; assay: PET/CT imaging in rat model of pulmonary aspergillosis; assay type: in vivo, Lewis rats; settings: A. fumigatus-infected rats, r.o. injection
Protocol: as §1
µPET/CT images were acquired with an Albira PET/SPECT/CT small animal imaging system (Bruker Biospin Corporation, Woodbridge, CT, USA). […] After reconstruction, acquired data were viewed, analyzed and processed using the appropriate software (PMOD software, PMOD Technologies Ltd., Zurich, Switzerland and VolView software, Kitware, Clifton Park, NY, USA).

[12] = tested on: Staphylococcus aureus; settings: cited from earlier work
[13] = set-up: method as in PMID 32734456; settings: healthy mice; cited from earlier work
[14] = tested on: Streptococcus agalactiae; set-up: method as in PMID 22172389, PMID 32734456; settings: cited from earlier work
[15] = tested on: Aspergillus flavus; set-up: method as in PMID 23818006; settings: cited from earlier work
[16] = tested on: Fusarium solani; set-up: method as in PMID 23818006; settings: cited from earlier work
[17] = tested on: R. oryzae; set-up: method as in PMID 23818006; settings: cited from earlier work
[18] = tested on: Aspergillus terreus; set-up: method as in PMID 23818006; settings: cited from earlier work
[19] = tested on: Mycobacterium smegmatis; set-up: method as in PMID 23818006; settings: cited from earlier work
[20] = tested on: Rhizopus arrhizus; set-up: method as in PMID 23818006; settings: cited from earlier work
[21] = tested on: Candida albicans; set-up: method as in PMID 23818006; settings: cited from earlier work
[22] = infected rat 1 (injected with [68Ga]Ga-DFO-B and [67Ga]Ga-DFO-E)
[23] = infected rat 2 (injected with [67Ga]Ga-DFO-B and [68Ga]Ga-DFO-E)

SMILES: CC(=O)N(O)CCCCCNC(=O)CCC(=O)N(O)CCCCCNC(=O)CCC(=O)N(O)CCCCCN [DFO-B, desferrioxamine B]
- in vitro uptake compared to the TAFC and DFO-E metal complexes [1]: significantly lower in vitro uptake

SMILES: CC(=O)N([O-])CCCCCNC(=O)CCC(=O)N([O-])CCCCCNC(=O)CCC(=O)N([O-])CCCCCN.[Fe+3] [Fe-DFO-B]
- growth promotion activity ([2]; pH 5 (acidic), listed as Fe-DFO-B^ac): rescued the growth promotion
- growth promotion activity ([2]; pH 7 (neutral)): promoted growth
- growth promotion activity ([2]; pH 9 (alkaline)): promoted growth

SMILES: CC(=O)N([O-])CCCCCNC(=O)CCC(=O)N([O-])CCCCCNC(=O)CCC(=O)N([O-])CCCCCNC(=O)CCC(=O)O.[Fe+3] [Fe-DFO-B^suc]
- growth promotion activity ([2]; pH 9 (alkaline)): lowest growth promotion activity

SMILES: O=C1CCC(=O)N([O-])CCCCCNC(=O)CCC(=O)N([O-])CCCCCNC(=O)CCC(=O)N([O-])CCCCCN1.[Fe+3] [Fe-DFO-E]
- growth promotion activity ([2]; pH 5 (acidic)): promoted the growth
- growth promotion activity ([2]; pH 7 (neutral)): promoted the growth
- growth promotion activity ([2]; pH 9 (alkaline)): promoted the growth

SMILES: CC(=O)N([O-])CCCCCNC(=O)CCC(=O)N([O-])CCCCCNC(=O)CCC(=O)N([O-])CCCCCN.[67Ga+3] [[^67Ga]Ga-DFO-B]
- radioactivity accumulation in non-infected organs (blood, spleen, pancreas, liver, heart and muscle) [3]: low radioactivity accumulation
- route of excretion [3]: primary excretion via kidneys

SMILES: O=C1CCC(=O)N([O-])CCCCCNC(=O)CCC(=O)N([O-])CCCCCNC(=O)CCC(=O)N([O-])CCCCCN1.[67Ga+3] [[^67Ga]Ga-DFO-E]
- radioactivity accumulation in non-infected organs (blood, spleen, pancreas, liver, heart and muscle) [3]: low radioactivity accumulation
- route of excretion [3]: primary excretion via kidneys
- uptake in the infected lungs as compared with radiolabeled DFO-B in the same rat [3]: only slightly higher uptake

SMILES: CC(=O)N([O-])CCCCCNC(=O)CCC(=O)N([O-])CCCCCNC(=O)CCC(=O)N([O-])CCCCCN.[68Ga+3] [[^68Ga]Ga-DFO-B]
- in vitro uptake [4]: lack significant uptake
- accumulation in the lungs [5]: negligible accumulation
- ratio of 68Ga activity in lung vs. blood [5]: 0.84
- uptake efficacy compared to [68Ga]Ga-DFO-E ([6]; pH 5, iron-limited culture): approximately 20%
- uptake efficacy compared to [68Ga]Ga-DFO-E ([6]; pH 7, iron-limited culture): about 50%
- uptake efficacy compared to [68Ga]Ga-DFO-E ([6]; pH 9, iron-limited culture): ~80%
- stability in human serum and PBS [7]: high stability
- in vitro uptake [8]: uptake was found
- protein binding [9]: low protein binding
- in vitro uptake [10]: lack significant uptake
- elimination of unbound tracer ([11]; PET/CT 45 min p.i.): rapidly eliminated via the renal system
- PET/CT imaging of the infected area in the lungs ([11]; static PET/CT 45 min p.i.): clear depiction of the infected area in the lungs
- in vitro uptake [12]: uptake was found
- renal excretion [13]: rapid renal excretion
- retention in the blood and other organs [13]: minimal retention
- in vitro uptake [14]: uptake was found
- in vitro uptake [1]: uptake was found
- ratio of activity in lung vs. blood [3, 22]: about 17
- ratio of activity in lung vs. blood [3, 23]: ~8
- radioactivity accumulation in non-infected organs (blood, spleen, pancreas, liver, heart and muscle) [3]: low radioactivity accumulation
- route of excretion [3]: primary excretion via kidneys

SMILES: CC(=O)N([O-])CCCCCNC(=O)CCC(=O)N([O-])CCCCCNC(=O)CCC(=O)N([O-])CCCCCNC(=O)CCC(=O)O.[68Ga+3] [[^68Ga]Ga-DFO-B^suc]
- uptake efficacy (in words) ([6]; pH 9, 45 min at 37 °C): highly decreased uptake efficacy

SMILES: O=C1CCC(=O)N([O-])CCCCCNC(=O)CCC(=O)N([O-])CCCCCNC(=O)CCC(=O)N([O-])CCCCCN1.[68Ga+3] [[^68Ga]Ga-DFO-E]
- accumulation in the lungs [5]: negligible accumulation
- ratio of 68Ga activity in lung vs. blood [5]: 0.79
- in vitro uptake [15]: considerable uptake
- in vitro uptake [16]: considerable uptake
- in vitro uptake [12]: considerable uptake
- in vitro uptake [17]: considerable uptake
- in vitro uptake [18]: considerable uptake
- in vitro uptake [1]: highest uptake
- ratio of activity in lung vs. blood [3, 22]: about 17
- ratio of activity in lung vs. blood [3, 23]: ~8
- radioactivity accumulation in non-infected organs (blood, spleen, pancreas, liver, heart and muscle) [3]: low radioactivity accumulation
- route of excretion [3]: primary excretion via kidneys
- uptake in the infected lungs as compared with radiolabeled DFO-B in the same rat [3]: only slightly higher uptake

SMILES: CC(=O)N[C@H]1CCCN2[O][Ga]3[O]N(CCC[C@H](NC(C)=O)C(=O)OCC/C(C)=C/C(=O)N(CCC[C@H](NC(C)=O)C(=O)OCC/C(C)=C/C2=O)[O]3)C(=O)/C=C(\C)CCOC1=O [[^68Ga]Ga-TAFC]
- in vitro uptake [15]: no significant uptake
- in vitro uptake [8]: no significant uptake
- in vitro uptake [19]: no significant uptake
- in vitro uptake [10]: no significant uptake
- in vitro uptake [12]: no significant uptake
- in vitro uptake [20]: uptake
- in vitro uptake [18]: no significant uptake
- in vitro uptake [1]: uptake
- in vitro uptake [21]: no significant uptake
